Reference: US20180104174A1, “Cosmetic Use of a Diospyros Mespiliformis Extract Alone or in Combination with Other Active Agents Such as an Anti-Pollutant” (Laboratoires Clarins, priority 2015, published 2018)

Experiments:
Format in all cases: cell-based
[1] = tested on: cell superoxide dismutase (SOD) in normal human keratinocytes; test: Mitoread RedOx c/mtSOD: cell SOD activity after H2O2 stress
Text: (§1) The objective of this study is the characterization of the antioxidant property of a Sanicula europea extract by evaluating the parameters of the redox state after induction of an oxidative stress by hydrogen peroxide (H2O2) in primary cultures of normal human keratinocytes. The Mitosafe® technology makes it possible to explore the antioxidant effects of active agents at the mitochondrial level. This technology consists of the integrated study of mitochondrial functions in living cells by multiplexed measurement of parameters such as cell viability, production of cell and mitochondrial oxygen free radicals, evaluation of antioxidant defenses. These tests in 96-well plates are carried out on primary cultures of human epidermal cells. The Mitoread RedOx c/mtSOD methodology consists of the quantification of the cell and mitochondrial SOD activities. The cells were pre-incubated at 37° C. for 60 minutes with the reference antioxidant, resveratrol at 1 μM, or the active ingredients at the predetermined concentrations. The cells were treated with the reference pro-oxidizing compound, hydrogen peroxide H2O2 at 100 μM for 60 minutes. Immediately after, the cell extracts were prepared and stored at −80° C. The enzymatic activities were measured by means of a fluorometric and enzymatic method using a microplate reader (Varioskan-Thermo). All the extracts were tested in triplicate.

[2] = tested on: mitochondrial reactive oxygen species (ROSs) in normal human keratinocytes; test: Mitoread AntiOx mtROS: mitochondrial ROS production after H2O2 stress
Text: The objective of this study is the characterization of the antioxidant property of a Sanicula europea extract by evaluating the parameters of the redox state after induction of an oxidative stress by hydrogen peroxide (H2O2) in primary cultures of normal human keratinocytes. The Mitosafe® technology makes it possible to explore the antioxidant effects of active agents at the mitochondrial level. This technology consists of the integrated study of mitochondrial functions in living cells by multiplexed measurement of parameters such as cell viability, production of cell and mitochondrial oxygen free radicals, evaluation of antioxidant defenses. These tests in 96-well plates are carried out on primary cultures of human epidermal cells. The Mitoread AntiOx mtROS methodology consists of the quantification of the antioxidant activity of the ingredients toward mitochondrial reactive oxygen species (ROSs) using a fluorescent label. The cells were pre-incubated at 37° C. for 60 minutes with the reference antioxidant, resveratrol 1 μM, or the active ingredients at the predetermined concentrations. Next, they were incubated with the fluorescent probe at 37° C. for 30 minutes, as a replacement for the antioxidant compounds. […] The mitochrondrial ROS production was immediately recorded for 60 minutes. The fluorescence is recorded every five minutes using a microplate reader (Varioskan-Thermo). […]

[3] = tested on: total glutathione (GSH+GSSG) in normal human keratinocytes; test: Mitoread RedOx GSHtot: total glutathione level after H2O2 stress
Text: as §1, with “RedOx GSHtot” for “RedOx c/mtSOD”, “the total glutathione level (GSH+GSSG).” for “the cell and mitochondrial SOD activities.”, “resveratrol” for “resveratrol at”, “the extract” for “the active ingredients”, “100 μM,” for “100 μM”, “The total glutathione level was” for “The enzymatic activities were”

[4] = tested on: mitochondrial superoxide dismutase (SOD) in normal human keratinocytes; test: Mitoread RedOx c/mtSOD: mitochondrial SOD activity after H2O2 stress
Text: as §1

[5] = tested on: cell reactive oxygen species (ROSs) in normal human keratinocytes; test: Mitoread AntiOx cROS: cell ROS production after H2O2 stress
Text: The objective of this study is the characterization of the antioxidant property of a Sanicula europea extract by evaluating the parameters of the redox state after induction of an oxidative stress by hydrogen peroxide (H2O2) in primary cultures of normal human keratinocytes. The Mitosafe® technology makes it possible to explore the antioxidant effects of active agents at the mitochondrial level. This technology consists of the integrated study of mitochondrial functions in living cells by multiplexed measurement of parameters such as cell viability, production of cell and mitochondrial oxygen free radicals, evaluation of antioxidant defenses. These tests in 96-well plates are carried out on primary cultures of human epidermal cells. The Mitoread AntiOx cROS methodology consists of the quantification of the antioxidant activity of the ingredients toward cell reactive oxygen species (ROSs) using a fluorescent label. […] After washing, the cells were co-incubated with the antioxidant reference compound, […] Trolox, or the extracts, at concentrations determined to be non-cytotoxic, in the presence of the pro-oxidizing reference compound, 100 μM H2O2. The cell ROS production was immediately recorded for 60 minutes. The fluorescence is recorded every five minutes using a microplate reader (Varioskan-Thermo). […]

Oc1ccc(C=Cc2cc(O)cc(O)c2)cc1 [resveratrol]
increase in the cell SOD activity in response to H2O2 exposure ([1]; 1 μM, p=0.036): ~40% | reduction of the overproduction of mitochondrial ROSs induced by H2O2 ([2]; 1 μM, p=0.013): ~1.3 times | reduction of the total glutathione level after treatment with H2O2 ([3]; pre-incubation at 1 μM, p=0.006): 94% | reduction of the activity of the mitochondrial SOD induced by H2O2 ([4]; 1 μM, p=0.021): ~66%

Cc1c(C)c2c(c(C)c1O)CCC(C)(C(=O)O)O2 (stereo not shown) [Trolox]
reduction of the overproduction of cell ROSs induced by H2O2 ([5]; Trolox at 10 μm, p<0.001): 1.7 times

OO [H2O2, hydrogen peroxide]
decrease in the cell SOD activity compared with the nontreated cells ([1]; H2O2 100 μM, non-significant trend, p=0.075): ~30% | increase in mitochondrial production of ROSs relative to the nontreated cells (factor) ([2]; 100 μM H2O2): 9.4 | increase of the cell ROS production level compared with the nontreated cells ([5]; 100 μM H2O2): 7.4 times | increase in the total glutathione level compared with the nontreated cells ([3]; H2O2 at 100 μM, p=0.044): ~2.9 times | increase in the mitochondrial SOD activity compared with the nontreated cells ([4]; H2O2 100 μM, p=0.006): ~211%
